From patent US20220168307A1, “TREATMENT OF SMA” (Hoffmann-La Roche Inc., priority 2019, published 2022)

Experiments:
CYP2C8 = biological target: T1, CYP2C8 (Homo sapiens, UniProt P10632); assay: Time-dependent inhibition (IC50 shift) of CYP2C8 in human liver microsomes; conditions: microsomes
T1 sequence (P10632 1-490): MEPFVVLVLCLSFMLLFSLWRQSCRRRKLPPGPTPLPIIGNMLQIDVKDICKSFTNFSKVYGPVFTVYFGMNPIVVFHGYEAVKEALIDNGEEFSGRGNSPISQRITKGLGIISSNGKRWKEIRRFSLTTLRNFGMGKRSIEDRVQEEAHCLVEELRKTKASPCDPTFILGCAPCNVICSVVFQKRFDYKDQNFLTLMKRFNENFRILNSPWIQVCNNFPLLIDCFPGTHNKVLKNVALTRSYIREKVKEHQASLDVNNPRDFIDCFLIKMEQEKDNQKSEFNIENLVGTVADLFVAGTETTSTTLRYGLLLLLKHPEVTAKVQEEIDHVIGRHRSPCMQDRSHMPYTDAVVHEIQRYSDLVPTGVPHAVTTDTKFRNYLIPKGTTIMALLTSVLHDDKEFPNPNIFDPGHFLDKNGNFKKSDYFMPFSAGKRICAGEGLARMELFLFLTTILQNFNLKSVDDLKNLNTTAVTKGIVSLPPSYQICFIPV
Description: Donors CMV negative for serology are unm
All incubations were conducted in duplicate.
% remaining=(C+I/C^−I)*100

[1] = urine; cited from earlier work
CYP2B6 = biological target: T2, CYP2B6 (Homo sapiens, UniProt P20813); assay: biochemical
T2 sequence (P20813 1-491): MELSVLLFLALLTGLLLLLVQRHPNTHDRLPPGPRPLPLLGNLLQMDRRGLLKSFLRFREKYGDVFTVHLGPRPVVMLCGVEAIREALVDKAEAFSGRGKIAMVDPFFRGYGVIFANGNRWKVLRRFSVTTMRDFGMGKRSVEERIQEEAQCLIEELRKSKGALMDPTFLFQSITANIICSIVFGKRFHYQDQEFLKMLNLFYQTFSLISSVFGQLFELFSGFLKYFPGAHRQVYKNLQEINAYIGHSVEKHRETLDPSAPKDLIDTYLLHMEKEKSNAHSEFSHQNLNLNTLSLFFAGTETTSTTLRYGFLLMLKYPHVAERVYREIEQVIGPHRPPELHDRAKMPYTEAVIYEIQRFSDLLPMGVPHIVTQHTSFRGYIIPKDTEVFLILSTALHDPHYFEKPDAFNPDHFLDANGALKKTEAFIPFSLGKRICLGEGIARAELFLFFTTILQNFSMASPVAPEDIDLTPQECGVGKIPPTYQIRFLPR

## Cc1ccc(C)c(OCCCC(C)(C)C(=O)O[C@@H]2O[C@H](C(=O)O)[C@@H](O)[C@H](O)[C@H]2O)c1 [Gemfibrozil glucuronide, reference compound]
CYP2C8
  IC50: 760 nM

## Cc1ncc2n1-c1ccc(Cl)cc1C(c1ccccc1F)=NC2 [midazolam, 8-chloro-6-(2-fluorophenyl)-1-methyl-4H-imidazo[1,5-a][1,4]]
[1]
  dose excreted unchanged: 1%

## CC(=O)N1CCN(c2ccc(OCC3COC(Cn4ccnc4)(c4ccc(Cl)cc4Cl)O3)cc2)CC1 (stereo not drawn) [Ketoconazole, reference compound]
CYP2B6
  IC50: 3400 nM
